How the values were obtained:
[1] = target: Cathepsin S (Homo sapiens, UniProt P25774); test: Cathepsin S inhibition assay (fluorogenic peptide substrate); assay type: biochemical; conditions: Table II, compounds of Formula I; read-out: Ki Cat. S
Method: “Inhibition constant”, Ki, is the dissociation constant of the enzyme-inhibitor complex, or the reciprocal of the binding affinity of the inhibitor to the enzyme. […] The inhibited rates are then fit by nonlinear regression to the following equation: […]
The assumption being made for the classical inhibition described above is that the free inhibitor concentration is equal to the total inhibitor concentration.
Kinetic measurements are performed in a total reaction volume of 30 μl in 384-well microtiter plates. […] The reactions are initiated by adding the substrate, acetyl-histidine-proline-valine-lysine-amino carbamoyl coumarin, to a final concentration of 50 μM. The rate of substrate hydrolysis is measured by monitoring the increase in fluorescence at an excitation wavelength of 380 nm and an emission wavelength of 450 nm that results from cleavage of the aniline bond in the substrate by the enzyme.

[2] = target: T1, Cathepsin K (Homo sapiens, UniProt P43235); test: Cathepsin K inhibition assay (fluorogenic peptide substrate); selectivity ratio vs cathepsin S; assay type: biochemical; conditions: ratio of cathepsin K inhibition constant to cathepsin S inhibition constant; Table II
T1 sequence (P43235 115-329): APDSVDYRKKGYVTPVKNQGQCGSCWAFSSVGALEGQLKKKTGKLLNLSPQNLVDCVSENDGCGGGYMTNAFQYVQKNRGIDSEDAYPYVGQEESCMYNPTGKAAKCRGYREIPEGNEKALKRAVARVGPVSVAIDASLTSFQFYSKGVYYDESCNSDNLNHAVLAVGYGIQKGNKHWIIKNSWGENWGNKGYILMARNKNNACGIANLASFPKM
Method: The optimal substrate for cathepsin K, acetyl-lysine-histidine-proline-lysine-amino carbamoyl coumarin, was identified from screening a combinatorial library of fluorogenic peptide substrates (Harris, J. L., B. J. Backes, et al., Proc Natl Acad Sci USA 2000, 97(14), 7754-9). Kinetic measurements are performed in a total reaction volume of 30 μl in 384-well microtiter plates. […] The reactions are initiated by adding the substrate, acetyl-lysine-histidine-proline-lysine-amino carbamoyl coumarin, to a final concentration of 40 μM. The rate of substrate hydrolysis is measured by monitoring the increase in fluorescence at an excitation wavelength of 380 nm and an emission wavelength of 450 nm that results from cleavage of the aniline bond in the substrate by the enzyme. The apparent inhibition constants for the compounds are determined from the enzyme progress curves ([…]. Elrod, et al., Anal Biochem 2000, 286(1), 45-50) and are then used to calculate the inhibition constants for competitive inhibitors. Selectivity for cathepsin S in the presence of cathepsin isozymes was determined by the ratio of the cathepsin isozyme inhibition constant of a compound of the present invention to the cathepsin S inhibition constant of the same compound.

Cathepsin S, sequence (P25774 115-331, species assumed): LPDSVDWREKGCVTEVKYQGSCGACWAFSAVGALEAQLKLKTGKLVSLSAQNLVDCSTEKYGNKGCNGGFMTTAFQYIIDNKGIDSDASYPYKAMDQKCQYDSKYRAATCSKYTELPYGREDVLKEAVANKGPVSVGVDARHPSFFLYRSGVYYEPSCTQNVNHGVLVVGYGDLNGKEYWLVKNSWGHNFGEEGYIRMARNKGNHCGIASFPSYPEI

| Ki [1] [nM] | Selectivity for Cat. S over Cat. K [2] | SMILES |
| --- | --- | --- |
| < 100 | +++ (+++, >1000) | O=C(N[C@@H](CC1CCCCC1)C(=O)NCCNc1ccc(OC(F)(F)F)cc1)c1ccc(-c2cccc(C(F)(F)F)c2)s1 [Compound 50, 5-(3-Trifluoromethyl-phenyl)-thiophene-2-carboxylic acid (S)-{2-cyclohexyl-1-[2-(4-trifluoromethoxy-phenylamino)-ethylcarbamoyl]-ethyl}-amide] |
| < 10000 | + (+, >10) | COc1ccc(NCCNC(=O)[C@H](Cc2ccccc2)NC(=O)c2cccc3c2OCC3)cc1 [Compound 52, (S)-2,3-Dihydro-benzofuran-7-carboxylic acid {1-[2-(4-methoxy-phenylamino)-ethylcarbamoyl]-2-phenyl-ethyl}-amide] |
| < 100 | +++ (+++, >1000) | CS(=O)(=O)c1ccc(C(=O)N[C@@H](CC2CCCCC2)C(=O)NCCNc2ccc(OC(F)(F)F)cc2)s1 [Compound 53, 5-Methanesulfonyl-thiophene-2-carboxylic acid (S)-{2-cyclohexyl-1-[2-(4-trifluoromethoxy-phenylamino)-ethylcarbamoyl]-ethyl}-amide] |
| < 1000 | + (+, >10) | COc1ccc(NCCNC(=O)[C@H](Cc2ccccc2)NC(=O)Nc2ccccc2)cc1 [Compound 57, (S)-N-[2-(4-Methoxy-phenylamino)-ethyl]-3-phenyl-2-(3-phenyl-ureido)-propionamide] |
| < 100 | ++ (++, >100) | O=C(NCCNc1ccc(OC(F)(F)F)cc1)[C@H](CC1CCCCC1)NC(=O)[C@@H](O)c1ccccc1 [Compound 58, 3-Cyclohexyl-2-(S)-(2-(S)-hydroxy-2-phenyl-acetylamino)-N-[2-(4-trifluoromethoxy-phenylamino)-ethyl]-propionamide] |
| < 1000 | ++ (++, >100) | O=C(N[C@@H](CC1CCCCC1)C(=O)NCCNc1ccc(OC(F)(F)F)cc1)c1onc2ccccc12 [Compound 59, Benzo[c]isoxazole-3-carboxylic acid (S)-{2-cyclohexyl-1-[2-(4-trifluoromethoxy-phenylamino)-ethylcarbamoyl]-ethyl}-amide] |
| < 100 | ++ (++, >100) | O=C(N[C@@H](CC1CCCCC1)C(=O)NCCNc1ccc(OC(F)(F)F)cc1)c1ccc(-c2ccccc2)s1 [Compound 62, 5-Phenyl-thiophene-2-carboxylic acid (S)-{2-cyclohexyl-1-[2-(4-trifluoromethoxy-phenylamino)-ethylcarbamoyl]-ethyl}-amide] |
| < 10000 | + (+, >10) | COc1ccc(NCCNC(=O)[C@H](Cc2ccccc2)NC(=O)c2cccnc2)cc1 [Compound 63, (S)-N-{1-[2-(4-Methoxy-phenylamino)-ethylcarbamoyl]-2-phenyl-ethyl}-nicotinamide] |
| < 10000 | + (+, >10) | COc1ccc(NCCNC(=O)[C@H](Cc2ccccc2)NC(=O)c2ccncc2)cc1 [Compound 64, (S)-N-{1-[2-(4-Methoxy-phenylamino)-ethylcarbamoyl]-2-phenyl-ethyl}-isonicotinamide] |
| < 100 | ++ (++, >100) | O=C(N[C@@H](CC1CCCCC1)C(=O)NCCNc1ccc(OC(F)(F)F)cc1)c1ccc(-c2ccccc2)o1 [Compound 65, 5-Phenyl-furan-2-carboxylic acid (S)-{2-cyclohexyl-1-[2-(4-trifluoromethoxy-phenylamino)-ethylcarbamoyl]-ethyl}-amide] |
| < 100 | + (+, >10) | O=C(N[C@@H](CC1CCCCC1)C(=O)NCCNc1ccc(OC(F)(F)F)cc1)c1ccc(-c2cnco2)cc1 [Compound 67, N-(S)-{2-cyclohexyl-1-[2-(4-trifluoromethoxy-phenylamino)-ethylcarbamoyl]-ethyl}-4-oxazol-5-yl-benzamide] |
| < 10000 | ++ (++, >100) | Cc1cc(C)nc(N2CCC(C(=O)N[C@@H](CC3CCCCC3)C(=O)NCCNc3ccc(OC(F)(F)F)cc3)CC2)n1 [Compound 72, 1-(4,6-Dimethyl-pyrimidin-2-yl)-piperidine-4-carboxylic acid (S)-{2-cyclohexyl-1-[2-(4-trifluoromethoxy-phenylamino)-ethylcarbamoyl]-ethyl}-amide] |

More lines, now with the values behind:

| SMILES | Ki [1] [nM] | Selectivity for Cat. S over Cat. K [2] |
| --- | --- | --- |
| Cc1cc2ncc(C(=O)N[C@@H](CC3CCCCC3)C(=O)NCCNc3ccc(OC(F)(F)F)cc3)c(C)n2n1 [Compound 48, 2,7-Dimethyl-pyrazolo[1,5-a]pyrimidine-6-carboxylic acid (S)-{2-cyclohexyl-1-[2-(4-trifluoromethoxy-phenylamino)-ethylcarbamoyl]-ethyl}-amide] | < 1000 | ++ (++, >100) |
| Cc1oc(S(=O)(=O)N2CCOCC2)cc1C(=O)N[C@@H](CC1CCCCC1)C(=O)NCCNc1ccc(OC(F)(F)F)cc1 [Compound 49, 2-Methyl-5-(morpholine-4-sulfonyl)-furan-3carboxylic acid (S)-{2-cyclohexyl-1-[2-(4-trifluoromethoxy-phenylamino)-ethylcarbamoyl]-ethyl}-amide] | < 100 | ++ (++, >100) |
| Cc1cccc(-c2ccc(C(=O)N[C@@H](CC3CCCCC3)C(=O)NCCNc3ccc(OC(F)(F)F)cc3)o2)c1 [Compound 51, 5-m-Tolyl-furan-2-carboxylic acid (S)-{2-cyclohexyl-1-[2-(4-trifluoromethoxy-phenylamino)-ethylcarbamoyl]-ethyl}-amide] | < 100 | +++ (+++, >1000) |
| O=C(N[C@@H](CC1CCCCC1)C(=O)NCCNc1ccc(OC(F)(F)F)cc1)c1csc(-c2ccccc2)n1 [Compound 54, 2-Phenyl-thiazole-4-carboxylic acid (S)-{2-cyclohexyl-1-[2-(4-trifluoromethoxy-phenylamino)-ethylcarbamoyl]-ethyl}-amide] | < 100 | + (+, >10) |
| COc1ccc(NCCNC(=O)[C@H](Cc2ccccc2)NC(=O)c2cccc(C#N)c2)cc1 [Compound 55, (S)-3-Cyano-N-{1-[2-(4-methoxy-phenylamino)-ethylcarbamoyl]-2-phenyl-ethyl}-benzamide] | < 1000 | ++ (++, >100) |
| COc1ccc(NCCNC(=O)[C@H](Cc2ccccc2)NC(=O)c2cccc(-c3csc(C)n3)c2)cc1 [Compound 56, (S)-N-{1-[2-(4-Methoxy-phenylamino)-ethylcarbamoyl]-2-phenyl-ethyl}-3-(2-methyl-thiazol-4-yl)-benzamide] | < 1000 | ++ (++, >100) |
| O=C(N[C@@H](CC1CCCCC1)C(=O)NCCNc1ccc(OC(F)(F)F)cc1)c1ccc(OC(F)F)cc1 [Compound 60, N-(S)-{2-cyclohexyl-1-[2-(4-trifluoromethoxy-phenylamino)-ethylcarbamoyl]-ethyl}-4-difluoromethoxy-benzamide] | < 100 | + (+, >10) |
| CC(C)Oc1ccc(C(=O)N[C@@H](CC2CCCCC2)C(=O)NCCNc2ccc(OC(F)(F)F)cc2)cc1 [Compound 61, N-(S)-{2-cyclohexyl-1-[2-(4-trifluoromethoxy-phenylamino)-ethylcarbamoyl]-ethyl}-4-isopropoxy-benzamide] | < 1000 | + (+, >10) |
| COc1ccc(NCCNC(=O)[C@H](Cc2ccc(Oc3ccccc3C)cc2)NC(=O)c2cccc(C)c2)cc1 [Compound 66, (S)-N-[1-[2-(4-Methoxy-phenylamino)-ethylcarbamoyl]-2-(4-o-tolyloxy-phenyl)-ethyl]-3-methyl-benzamide] | < 1000 | ++ (++, >100) |
| Cc1ccc(-c2ccc(C(=O)N[C@@H](CC3CCCCC3)C(=O)NCCNc3ccc(OC(F)(F)F)cc3)o2)cc1 [Compound 70, 5-p-Tolyl-furan-2-carboxylic acid (S)-{2-cyclohexyl-1-[2-(4-trifluoromethoxy-phenylamino)-ethylcarbamoyl]-ethyl}-amide] | < 100 | +++ (+++, >1000) |
| Cc1cc(C)nc(N(C)c2cccc(C(=O)N[C@@H](CC3CCCCC3)C(=O)NCCNc3ccc(OC(F)(F)F)cc3)c2)n1 [Compound 71, N-(S)-{2-cyclohexyl-1-[2-(4-trifluoromethoxy-phenylamino)-ethylcarbamoyl]-ethyl}-3-[(4,6-dimethyl-pyrimidin-2-yl)-methyl-amino]-benzamide] | < 100 | ++ (++, >100) |

From US7109243B2 (IRM LLC, priority 2003, dated 2006)
